Legend:
[1] = tested on: B lymphocytes, T lymphocytes, macrophages and dendritic cells in lymph nodes; test: Recruitment of cells in lymph nodes after immunization; assay type: in vivo, mice; settings: 24 hours after subcutaneous immunization, vs Ctrl and PBS
Method: Method: Following an similar procedure of example 1, OVA was used as antigen and three inhibitor compounds, simvastatin, TH-Z80, and TH-Z145 were added as adjuvants, respectively. The OVA antigen and adjuvant were mixed at 1:1 and used for immunizing mice by subcutaneous injection. 24 hours after immunization, inguinal lymph nodes ipsilateral to the immunization were removed and separated through a 100 mesh screen into single-cell suspension. Flow cytometry was used to determine changes of the proportions and numbers of B lymphocytes, T lymphocytes, macrophages and dendritic cells in lymph nodes. The marker of the B lymphocyte was B220, the marker of the T lymphocyte was CD3, the markers of the macrophage were CD11b and F4/80, and the marker of the dendritic cell was CD11c.

PR8 influenza virus = PR8 influenza virus challenge after HA1 immunization; assay type: in vivo, mice; settings: 20 micrograms adjuvant with 5 micrograms HA1, intramuscular
Method: Method: 5 micrograms of hemagglutinin protein (HA1) in the PR8 influenza virus was added to phosphate buffer, 20 micrograms of simvastatin, 20 micrograms of TH-Z80, 20 micrograms of TH-Z93 and 20 micrograms of TH-Z145, respectively. And mice were injected intramuscularly for immunization on day 0, day 14 and day 21. Nasal mucosa of mice was inoculated with PR8 virus on day 28. And then the weight of the mice was weighed daily and the death of the mice was observed.

[2] = tested on: PvGGPPS (geranylgeranyl pyrophosphate synthase from Plasmodium); test: In vitro PvGGPPS enzymatic activity assay; assay type: biochemical; settings: GPP and IPP substrates
Method: PvGGPPs with 6 consecutive His at the N-terminus was induced to express in vitro, collected, and purified by Ni column. In vitro PvGGPPs enzymatic activity assay was performed in a 96-well plate at 200 μl of solution per well. The buffer of the system was 25 mM HEPES, 2.5 mM MgCl2, pH 7.4. Using GPP and IPP as reaction substrates, a 360 nm continuous spectrophotometric detection was performed in a phosphate lyase system. ORIGIN 8.0 software was used to plot and fit.

[3] = tested on: anti-OVA IgM and IgG antibodies; test: OVA evaluation system: adjuvant activity in antibody titer in mice; assay type: in vivo; settings: for adjuvant effect among bisphosphonic acid compounds / adjuvant effect vs 8 commercially available bisphosphonic acid compounds: 100 ug; for adjuvant effect among TH-Z80 series: intramuscular, OVA
Method: OVA evaluation system was used to determine adjuvant activity in antibody titer.
Mice of C57B/6 strain were used. The mice in the experimental group were injected with the obtained mixture of each of the statins and OVA antigen through soles injection, with 20 μl for each mouse. The mice in the control group were injected with a 1:1 mixture of PBS or DMSO (10 μl) and 10 μl OVA antigen (PBS or DMSO is 10 μl, respectively, and the antigen is 10 μl) through soles injection, with 20 μl for each mouse. On Day 7 and Day 14 after immunization, blood was taken from the mice's orbits, with 100 μl was taken from each mouse. The obtained blood was left at 4° C. overnight, and centrifuged at 6000 rpm for 8 min. The supernatant serum was removed and the titers of anti-OVA IgM and IgG antibodies in the serum were determined.
Test of the OVA antibody titer: The OVA protein was diluted to a concentration of 2 μg/ml with a carbonate solution of pH 9.6, coated in a 96-well ELISA plate at 50 μl per well, and left at 4° C. overnight. The ELISA plate was washed five times with PBS containing 0.05% Tween 20, blocked with 1% BSA solution at 200 μl per well, and incubated at room temperature for 2 h. The ELISA plate was washed five times with PBST (Phosphate Buffered Saline with Tween), a 2-fold serial dilution of the mouse serum after immunized with OVA was added at 50 μl per well and incubated at room temperature for 2 h. After the ELISA plate was washed five times with PBST, HRP (horseradish peroxidase)-labeled goat-anti-mouse IgM or IgG antibody was added and incubated at room temperature for 45 min. The ELISA plate was washed five times with PBST, and a color developing solution of sodium citrate OPD (o-phenylenediamine) was added. After 10 min of color development in the dark, sulfuric acid was added to terminate the reaction. The reading was performed with ELIASA OD490. The maximum serum dilution factor, when the ratio of light absorptions of the experimental group to the control group was >2.0, was the titer of the anti-OVA antibody in the serum.
Each test compound was formulated at a concentration of 2 mg/ml and the concentration of OVA antigen was 2 mg/ml. Each compound was mixed with OVA at 1:1. Each C57B/6 mouse in the experimental group was injected with 100 μl of the mixture (containing 50 μl of the antigen and 50 μl of the compound) by intramuscular injection at the right thigh. On Day 7 and Day 14 after immunization, blood was taken from the mice's orbit, and 100 μl was taken for each mouse. The obtained blood was allowed to stand at 4° C. overnight, and centrifuged at 6000 rpm for 8 min. The supernatant serum was removed, and the titers of anti-OVA IgM and IgG antibodies in the serum were determined.
Method: each of the test compounds (the 10 bisphosphonates as described above) was mixed with the OVE antigen at 1:1, and the concentrations of bisphosphonic acid and OVA were both 10 mg/ml. Mice of C57B/6 strain were used. The mice in the experimental group were injected with the mixture of each of the test compounds and OVA antigen through soles injection, with 20 μl for each mouse, and wherein the amounts of OVA antigen and each of the test compounds were both 100 ug. The mice in the control group were injected with a 1:1 mixture of […] and 10 μl OVA antigen through sole injection. On Day 7 and Day 14 after immunization, blood was taken from the mice's orbits, and 100 μl was taken from each mouse.
The obtained blood was left at 4° C. overnight, and centrifuged at 6000 rpm for 8 min. The supernatant serum was removed, and the titers of anti-OVA IgM and IgG antibodies in the serum were determined.
Method: TH-Z144 and TH-Z145 were prepared at the concentration of 10 mg/ml, the concentration of OVA antigen was also 10 mg/ml, and the compound and the antigen were mixed at 1:1. Mice of C57B/6 strain were used.

[4] = bisphosphonic acids 100 ug with OVA, soles injection, Day 7 and Day 14

| Molecule | proportions and numbers of B lymphocytes, T lymphocytes, macrophages and dendritic cells in lymph nodes [1] | body weight and death after PR8 virus inoculation (PR8 influenza virus) | IC50 [2] | adjuvant effect among TH-Z80 series [3] | other results |
| --- | --- | --- | --- | --- | --- |
| CCCCCCOc1ccc2c(c1)ncn2CC(O)(P(=O)(O)O)P(=O)(O)O [TH-Z80] | significantly increased | did not lose weight nor died | 0.37 µM | most significant adjuvant effects | adjuvant effect among bisphosphonic acid compounds ([3]; soles injection): most significant adjuvant effects; adjuvant effect vs 8 commercially available bisphosphonic acid compounds ([3]; soles injection): much higher than any of the 8 commercially available bisphosphonic acid compounds; IgM and IgG antibody titers vs PBS control [3, 4]: more than five times higher; antibody titers vs PBS control at different immunization sites ([3]; soles, subcutaneous, muscle, abdominal and nasal mucosa): significantly increased |
| CCCCCCCCOc1ccc2c(c1)ncn2CC(O)(P(=O)(O)O)P(=O)(O)O [TH-Z81] |  |  | 2.07 µM | most significant adjuvant effects |  |
| CCCCCCOc1ccnc(NC(P(=O)(O)O)P(=O)(O)O)c1 [TH-Z93, (((4-(hexyloxy)pyridin-2-yl)amino)methylene)bisphosphonic acid] |  | did not lose weight nor died |  |  | adjuvant effect among bisphosphonic acid compounds ([3]; soles injection): most significant adjuvant effects; adjuvant effect vs 8 commercially available bisphosphonic acid compounds ([3]; soles injection): much higher than any of the 8 commercially available bisphosphonic acid compounds; IgM and IgG antibody titers vs PBS control [3, 4]: more than five times higher |
| CCCCCCCOc1ccc2c(c1)ncn2CC(O)(P(=O)(O)O)P(=O)(O)O [TH-Z152] |  |  | 0.95 µM | most significant adjuvant effects |  |
| CCCCCCCCCOc1ccc2c(c1)ncn2CC(O)(P(=O)(O)O)P(=O)(O)O [TH-Z153] |  |  | 1.09 µM | most significant adjuvant effects |  |
| CCC(C)(C)C(=O)O[C@H]1C[C@@H](C)C=C2C=C[C@H](C)[C@H](CC[C@@H]3C[C@@H](O)CC(=O)O3)[C@H]21 [simvastatin, reference compound] | significantly increased | did not lose weight nor died |  |  | adjuvant effect among statin drugs ([3]; statins with OVA, soles injection): most significant adjuvant effects; IgM and IgG antibody titers vs PBS or DMSO control ([3]; statins with OVA, soles injection, Day 7 and Day 14): significantly higher titers |
| (2-(3-(octyloxy)phenyl)ethane-1,1-diyl)bisphosphonic acid [TH-Z145] | significantly increased | did not lose weight nor died |  |  | IgM and IgG antibody titers vs PBS control ([3]; GGPPS inhibitors 100 μg with OVA, right sole, Day 7 and Day 14): significantly higher titers |

Reference: patent publication US20250367283A1, “MEVALONATE PATHWAY INHIBITOR AS HIGHLY-EFFICIENT VACCINE ADJUVANT” (Tsinghua University, priority 2015, published 2025)
